One assay has as its system normal Swiss Albino mice. Nature of the assay: GTT in normal Swiss Albino mice (BSL). The settings on record: glucose 2 gm/kg i.p.; oral: Total amino acids 10 mg/kg, Trigonelline 75 mg/kg, Glyburide 10 mg/kg, Composition 30 mg/kg. It counts as in vivo, mouse. An excerpt:
The animals were fed in the following manner. • 1) Administration of 2 gm/kg of glucose by Inter Peritonially. • 2) Administration of the drug (Orally): [table] […] After centrifugation, the homogenate was characterized by thin layer chromatography and K^+ Ions by Biolyte analyser.

In assay [1] the test system is pancreas (potassium channel mediated insulin secretion). The assay is described as follows: K+ ions in pancreas homogenate by Biolyte analyser. To be noted: pancreas homogenate at 1 hour; oral: Total amino acids 10 mg/kg, Trigonelline 75 mg/kg, Glyburide 10 mg/kg, Composition 30 mg/kg. The class given is in vivo, mouse. How it is done: EXPERIMENT 6:—The effect of the composition prepared as per Experiment 1 & 2 as well as their individual components separated on column chromatography were studied on normal Swiss Albino mice (male) in the weight range of 25-30 gms for GTT. The animals were fed in the following manner. • 1) Administration of 2 gm/kg of glucose by Inter Peritonially. • 2) Administration of the drug (Orally):
• 3) Measurement of BSL at 0 minutes & 1 hour. • 4) Immediately after blood removal at 1 hour, the animals were sacrificed by tail flicking and the pancreas was removed and homogenized using tris buffer. After centrifugation, the homogenate was characterized by thin layer chromatography and K^+ Ions by Biolyte analyser. Following are the observations:
Decreased K+ ion concentration indicates the repolarisation effect as the ATP dependant IK-ATP

Assay [2] is described as follows: Comparative hypoglycemic activity of fenugreek seed powder, fenugreek components and the composition. The settings on record: in vivo. The text has this:
The comparative results of fenugreek seed powder (whole), and the composition of the instant application are shown below to establish inventiveness of the application.
The activity was restricted to only a couple of components. Also, synergy was observed by a selective combination of three components of the composition. The same is elaborated with the help of experimental data as given below.

For assay [3], the system named is Female wistar rats, sciatic nerve. Nature of the assay: Partial sciatic nerve ligation: thermal hyperalgesia (hot plate). It counts as in vivo, rat. To be noted: 50 mg/kg, nerve ligated. As to the method: This experiment is conducted to evaluate the neuropathy effects. • 1. Partial Sciatic Nerve Ligation • 2.
(§1) Surgery:—Under ether anesthesia and aseptic conditions the right sciatic nerve was exposed at high thigh level. In sham operated animals the nerve was left intact and the wound was closed with 2 muscle suture and 3-4 skin sutures.
(§2) In experimental animals the sciatic nerve underwent partial injury. The dorsum of the nerve was carefully freed from surrounding connective tissues at a site near the trochanter just distil to the point at which the posterior biceps semitendinosus nerve branches off the common sciatic nerve. Using an irish forceps the nerve was fixed in its place by pinching the epineurium on its dorsal aspect, taking care not to press the nerve against underlying structures. An 4-0 silk suture was inserted into the nerve with ⅜ curved, reverse-cutting mini needle, and tightly ligated so that the dorsal ⅓−½ of the nerve thickness was trapped in the ligature. The wound was then closed as in sham operated rats. In all rats the left leg and sciatic nerve were untouched.
(§3) The animals were divided into following groups:—
(§4) Group 1 Control (vehicle treated) (but nerve not ligated)
(§5) Group 2 Sham treated (vehicle treated)(Surgery done but no ligation of nerve)
(§6) Group 3 Vitamin E acetate (50 mg/kg) (nerve ligated)
(§7) Group 4 Indus test drug (100 mg/kg) (nerve ligated)
(§8) Group 5 Indus test drug (200 mg/kg) (nerve ligated)
• a. Thermal hyperalgesia (TH):—This was assessed using Ugo Basile Hot Plate instrument (at 55±1° C.). Antinociceptive effects were determined according to the latency (in seconds) of limb withdrawal to the noxious thermal simulation (Ugo Basile hot plate, Versace, Italy). Cut off value of planter test was set to 22 s to prevent limb injury. The pain threshold were tested on day 0, 2, 4, 6, 8, 10, 12, 14, 21 and 28. • b. Motor function test (MFT):—Motor function was monitored by observation of spontaneous gait and hind paw posture. Each animal was placed in a plastic box with plexiglass walls and allowed to habituate for at least 5 minutes before the observation period. […] The readings were observed on day 0, 2, 15 and 30.

For assay [4] the test system is unchanged. Nature of the assay: Partial sciatic nerve ligation: motor function test, pain scale. The class given is in vivo, rat. To be noted: 50 mg/kg, scale 0 nil to 5 highly severe. As to the method:
This experiment is conducted to evaluate the neuropathy effects. • 1. Partial Sciatic Nerve Ligation • 2. Formalin Induced Behavioral And Thermal Hyperalgesia Experiment 1: Partial Sciatic Nerve Ligation Material and Method:— Preparation of Animals:— Animals:—Female wistar rats 175-250 gram (n=6)
as §1, §2, §3, §4, §5, §6, §7, §8
• a. Thermal hyperalgesia (TH):—This was assessed using Ugo Basile Hot Plate instrument (at 55±1° C.). Antinociceptive effects were determined according to the latency (in seconds) of limb withdrawal to the noxious thermal simulation (Ugo Basile hot plate, Versace, Italy). […] Motor function test (MFT):—Motor function was monitored by observation of spontaneous gait and hind paw posture. […] The readings were observed on day 0, 2, 15 and 30.

In a further assay the test system is Male wistar rats, kidney. The assay is described as follows: Diabetic nephropathy model (Alloxan plus left renal artery clamping). The class given is in vivo, rat. How it is done:
Male wistar rats of 150-200 gram were injected Alloxan (150 mg/kg i.p.) to induce diabetes. Once the animals show blood sugar above 250 mg/dl, animals are divided in groups as mentioned below and dosing of same is started as per groups. After 7 days of dosing in test drug groups and 3 days dosing in insulin group surgery is performed. In all groups animals were anesthetized and a small midline incision was made to isolate left renal artery and clamped for 30 minutes after which animals were stitched back. This is a kidney ligation technique to induce diabetic nephropathy in experimental animals. In Group 1, complete procedure was same but no treatment is given. The animals were then allowed to recover and dosing was continued as per given in various groups till day 30th after surgery. Creatinine clearance was noted on 0th, 10th, 20th and 30th day. After 30 days animals were sacrificed and kidney was sent for histopathological evaluation. Group 1 Saline (untreated) Group 2 Test drug (low dose) Group 3 Test drug (medium dose) Group 4 Test drug (high dose) Group 5 Standard (insulin)

Regarding `COc1ccc(Cl)cc1C(=O)NCCc1ccc(S(=O)(=O)NC(=O)NC2CCCCC2)cc1` [Glyburide], in the assay with normal Swiss Albino mice, the “BSL after 1 hour” value was determined as 251 mg/dL and the “BSL at 0 hrs” value is 365 mg/dL. Also, the “K+ Ions (μ Mol)” value in assay [1] is reported as 22.5 μ Mol.
Consider `C[n+]1cccc(C(=O)[O-])c1` [Trigonelline], for which the “Hypoglycemic activity (%)” value in assay [2] is recorded as 31%. Moreover, in the assay on normal Swiss Albino mice, the “BSL after 1 hour” value worked out at 233 mg/dL and the “BSL at 0 hrs” value stood at 341 mg/dL. Further, in assay [1], the “K+ Ions (μ Mol)” value was 21.8 μ Mol.
As to `CC(=O)Oc1c(C)c(C)c2c(c1C)CCC(C)(CCC[C@H](C)CCC[C@H](C)CCCC(C)C)O2` (some centres unmarked) [Vitamin E, Vitamin E acetate], the “Thermal hyperalgesia, latency of limb withdrawal” value in assay [3] (0th day (before ligation)) was determined as 9.51 s; in assay [3] (2nd day), 3.24 s; in assay [3] (4th day), 5.9 s; in assay [3] (6th day), 7.12 s; in assay [3] (8th day), 7.95 s; in assay [3] (10th day), 9.81 s. Further, the “Thermal hyperalgesia, latency of limb withdrawal” value came to 9.88 s in assay [3] (12th day) and 10.04 s in assay [3] (14th day). Also, the “Motor function test, Pain scale” value amounted to 0 in assay [4] (0th day), 2.77 in assay [4] (2nd day) and 1.25 in assay [4] (15th day).
On to insulin: Standard in nephropathy model, for which the “Histopathology of the kidney: cellularity and matrix” value in the assay with Male wistar rats, kidney (insulin group) was “did not show any increase in cellularity and matrix”. In the assay on Male wistar rats, kidney (insulin treated group), the “Histopathology of the kidney: tubular necrosis, interstitial fibrosis” value is “very mild”.

(Values after patent US7674486B2, “Synergistic composition for the treatment of diabetes mellitus” (Indus Biotech Pvt. Ltd., priority 2003, dated 2010).)
